Our source for the cell proliferation and IC50 values is patent US20200054651A1, “COMPOSITIONS AND METHODS FOR MODULATING PPP2R1A” (The Regents of the University of California, priority 2017, published 2020).

By IC50 is commonly meant the concentration that inhibits the measured activity by half.

The subject of assay [1] is 231MFP breast cancer cells. In words: 231MFP cell proliferation (Hoechst staining). Type of assay: cell-based. The conditions noted are these: 100 μM, 48 h, 231MFP.
Assay [2] has as its target T1, pure human PPP2R1A protein (Homo sapiens, UniProt P30153).
T1 construct: purchased Origene
In words: Gel-based ABPP, competition against IAyne labeling. The conditions noted are these: 30 min at 37° C. pre-treatment, IAyne labeling. Type of assay: binding. Here is the method: Gel-based ABPP methods were performed using the methods described in “Chem Biol 22(10), 1394-1405 (2015)” by Medina-Cleghorn D., et al. Recombinant pure human proteins were purchased from Origene. Pure proteins were pre-treated with DMSO, Withaferin A, or acrylamide or chloroacetamide compounds (e.g., DKM 2-90 or JNS 1-40) for 30 minutes at 37° C. in an incubation volume of PBS (50 μL), and were subsequently treated with IAyne (10 μM final concentration) for 30 minutes at room temperature. CuAAC was performed to append rhodamine-azide onto IAyne probe-labeled proteins. The samples were separated by SDS/PAGE and scanned using a ChemiDoc MP. Inhibition of target labeling was assessed by densitometry using ImageStudio Light software.

T1 sequence (P30153 whole entry): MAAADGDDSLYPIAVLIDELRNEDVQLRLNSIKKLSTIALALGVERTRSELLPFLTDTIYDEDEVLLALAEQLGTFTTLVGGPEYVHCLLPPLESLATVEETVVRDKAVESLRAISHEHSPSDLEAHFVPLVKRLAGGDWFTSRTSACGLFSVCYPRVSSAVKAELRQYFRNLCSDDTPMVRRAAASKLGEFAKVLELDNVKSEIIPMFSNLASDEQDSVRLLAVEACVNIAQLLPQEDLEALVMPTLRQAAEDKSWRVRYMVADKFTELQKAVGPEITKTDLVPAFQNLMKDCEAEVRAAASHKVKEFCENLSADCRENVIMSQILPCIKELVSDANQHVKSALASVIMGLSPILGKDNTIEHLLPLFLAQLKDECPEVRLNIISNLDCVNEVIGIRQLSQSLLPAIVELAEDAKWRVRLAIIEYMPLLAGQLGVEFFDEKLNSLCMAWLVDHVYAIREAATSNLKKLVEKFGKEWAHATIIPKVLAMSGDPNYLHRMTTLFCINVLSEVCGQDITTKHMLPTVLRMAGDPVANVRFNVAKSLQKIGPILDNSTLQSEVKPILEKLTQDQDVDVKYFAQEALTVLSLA

Take `O=C(CCl)Nc1cccc2c1CCC2` [DKM 2-91]: the cell proliferation entry in assay [1] was “lead compounds”.

Regarding `O=C(CCl)Nc1ccc2c(c1)CCCC2` [JNS 1-37, 2-Chloro-N-(5,6,7,8-tetrahydronaphthalen-2-yl)acetamide], the IC50 in assay [2] was 300 µM.
